# Patent US20120083473A1, “TREATMENT OF CONDITIONS BY TOLL-LIKE RECEPTOR MODULATORS” (priority 2010, published 2012)
# Tests used:
# Stability of the API = assay type: physicochemical; details: for stability of powder: preliminary
# Experimental: Compound 2 powder underwent preliminary stability testing at 25° C. for 6 months and 40° C. for three months. […] Aqueous solutions of Compound 2 (2 mg/ml) are stable up to 4 weeks at 37° C.
# [1] = tested on: murine peritoneal macrophages (PEC); assay: Cross-tolerance toward TLR ligands and pro-inflammatory cytokines in PEC (gene expression); assay type: cell-based, mice
# Experimental: In addition, tolerance is tested also in response to primary cytokines IL-1-beta and TNFalpha. This approach clarifies whether the TLR7 partial agonist compound 2 of Table 2 promotes cross-tolerance of different members of the TLR family, as well as of the IL-1 and TNF receptor systems, which has been regularly reported.
# A second group of experiments was performed to evaluate the capacity of TMX to promote cross tolerance toward several TLR ligands and pro-inflammatory cytokines. PECs maintained in medium or pre-treated for 20 hours with 10 μM or 1 μM of TMX and re-challenged with several TLR agonists or pro-inflammatory cytokines were analyzed for the expression of selected M1 and M2 genes.
# Cell Culture and treatments. Peritoneal exudate cells (PEC) were harvested from mice injected with 1 ml of 3% (w/v) thioglycollate medium (Difco, Detroit, Mich.) 4 days prior to isolation. PECs were incubated in RPMI 1640 medium, containing 10% fetal bovine serum, 2 mM glutamine and 100 U/ml of penicillin-streptomycin. The concentration for the different treatments were as follows: LPS (100 ng/ml) (Lipopolysaccharide from Salmonella Abortus Equi S-form, Alexis), CpG (1 μg/ml), Pam3CSK (2 μg/ml), Poly I:C (10 μg/ml), Loxorubine (100 μM), flagellin (100 ng/ml) IL-1β (20 ng/ml), TNF (20 ng/ml), IL-10 (20 ng/ml) (Peprotech), IFNγ (200 U/ml) (Peprotech). To induce TMX tolerance, cells were incubated in the presence of TMX (10 μM or 1 μM) for 20 hrs, washed and maintained in RPMI medium for 2 hrs and then re-challenged with TMX (10 μM) for 4 hrs. To induce TMX-tolerization (T/M) cells were treated with TMX for 20 hrs, washed and then maintained in medium for additional 6 hours, without TMX re-challenge. To induce M1-activation, cells were incubated in medium for 20 hrs, washed, left in medium for 2 hrs and finally stimulated with TMX (10 μM) for 4 hrs. Control cells (M/M) were cultured in medium for the entire period of the experiment. For gene expression analysis, total RNA was extracted from TMX treated and untreated cells with trizol (Invitrogen), according to the manufacturer's instructions. To analyze cytokines and chemokines production supernatants were collected 24 hrs after the second challenge with TMX.
# Real-Time PCR. Total RNA was purified as previously described. Briefly, reverse transcription from 1 μg of RNA was performed using cDNA Archive kit (Applied Biosystem, NJ, USA). Real time PCR was performed using Power Syber Green PCR Master Mix (Applied Biosystem, NJ, USA) and detected by 7900HT Fast Real-Time System (Applied Biosystem, NJ, USA). […] Results were normalized to the expression of the housekeeping gene β-actin and then expressed as folds of upregulation, with respect to the control cell population.
# human monocytes (Mo) = assay: Cross-tolerance toward TLR ligands in human monocytes (gene expression); assay type: cell-based
# Experimental: To evaluate the effects of TMX on human cell activation, monocytes were isolated from buffy coats obtained from four different healthy donors. With respect to macrophage tolerance, cells were treated with Compound 2 (10 microM) up to 20 hours and then re-challenged with agonists/ligands of different TLRs (TLR2, TLR4, TLR5, TLR9, TLR7, etc. . . . ), including the TLR7 unconjugated ligand 1V209 (free pharmacophore) at a concentration of 10 microM.
# Cell Culture and treatments. Monocytes (Mo) were obtained from buffycoats collected from healthy donors as previously described (Porta C et al, PNAS 2009). Cells were incubated in RPMI 1640 medium, containing 10% fetal bovine serum, 2 mM glutamine and 100 U/ml of penicillin-streptomycin. The concentrations for the different treatments were as follows: LPS (100 ng/ml) (Lipopolysaccharide from Salmonella Abortus Equi S-form, Alexis), CpG (1 microg/ml), Pam3CSK (2 microg/ml), Poly I:C (10 microg/ml), Loxorubine (100 microM), flagellin (100 ng/ml). To induce TMX tolerance, cells were incubated in the presence of TMX (10 microM) for 20 hrs, washed and maintained in RPMI medium for 2 hrs and then re-challenged with TMX (10 microM) for 4 hrs. To induce TMX-tolerization (T/M) cells were treated with TMX for 20 hrs, washed and then maintained in medium for additional 6 hours, without TMX re-challenge. To induce M1-activation cells were incubated in medium for 20 hrs, washed, left in medium for 2 hrs and finally stimulated with TMX (10 microM) for 4 hrs. Control cells (M/M) were cultured in medium for the entire period of the experiment. For gene expression analysis, total RNA was extracted from TMX treated and untreated cells with trizol (Invitrogen), according to the manufacturer's instructions. To analyze cytokines and chemokines production supernatants were collected 24 hrs after the second challenge with TMX.
# Real-Time PCR. Total RNA was purified as previously described. Briefly, reverse transcription from 1 microgram of RNA was performed using a cDNA Archive kit (Applied Biosystem, NJ, USA). Real time PCR was performed using Power Syber Green PCR Master Mix (Applied Biosystem, NJ, USA) and detected by 7900HT Fast Real-Time System (Applied Biosystem, NJ, USA). Data were processed using the SDS2.2.2 software (Applied Biosystem, NJ, USA). Results were normalized to the expression of the housekeeping gene 8-actin and then expressed as folds of upregulation, with respect to the control cell population.
compound,measurement,setting,value
COCCOc1nc(N)c2nc(O)n(Cc3ccc(C(=O)NCCOCCOCCOCCOCCOCCOCCn4cc(CCC(=O)O)nn4)cc3)c2n1 [Compound 2],stability of powder,Stability of the API; 25° C. for 6 months,no degradation or impurity profile changes
same,stability of powder,Stability of the API; 40° C. for three months,no degradation or impurity profile changes
same,time aqueous solutions are stable,"Stability of the API; aqueous solutions 2 mg/ml, 37° C.",up to 4 weeks
same,M2 genes expression on re-challenge with different TLR agonists,[1]; PECs pre-treated with TMX,triggered the expression of M2 genes
same,M1 genes expression in response to TLR ligands,[1]; PECs tolerized by 20 hours pre-treatment with 10 μM TMX,inability to up-regulate M1 genes expression
same,cross-tolerance,"[1]; TMX 10 microM, exception CXCL10 following re-challenge with CpG, poly I:C, LPS",observed
same,IL-10 expression following re-challenge of TMX-tolerant macrophages with TNF,[1]; TNF 20 ng/ml,still induced
same,"TNFalpha, IL-1 beta, IL-6 and IL-12 gene expression in response to TLR ligands","human monocytes (Mo); Mo tolerized by 20 hours pre-treatment, excluding Pam",inability to up-regulate
same,down-regulation of M1 marker IL-12p40,"human monocytes (Mo); TMX pretreatment, stimulation through TLRs other than TLR7",~10 fold
same,"M2 gene induction, CCL17 in particular","human monocytes (Mo); TMX treatment, TLR agonist re-challenge",strongly enhanced
same,"Th2-recruiting chemokines genes (CCL17, CCL22) on TLR engagement","human monocytes (Mo); tolerized Mo, but not IL-10",trigger the expression
